In assay [1] the test system is A549 human pulmonary cancer cells. The assay can be described thus: MTT test, proliferation of A549. The class given is cell-based. The conditions noted are these: MTT test.
In assay [2] the test system is human mammary tumoral lineage T-47D. The assay can be described thus: Clonogenic test (soft agar), growth of cellular colonies. Format: cell-based. The conditions noted are these: T-47D, soft agar. The text has this: The human tumour stem cells are the clonogenic cells which are the origin of the neoplasic cells which constitute a given tumour. These tumour stem cells are responsible for the recidivism process observable after surgical resection of the primary tumours and are also responsible for the formation of metastases. […] At the level of a tumour or of a tumoral cellular lineage, these clonogenic stem cells distinguish themselves from other clonogenic cells of the tumour or of the neoplasic cellular lineage being considered, by the fact that they preserve their ability to proliferate in the absence of any solid support.
This technique is suitable for the culturing in vitro of most of the tumours and tumoral cellular lineages of various histological types. In the context of this test, the neoplastic cells are cultured on a semi-solid culture medium "soft agar" made up of a mixture of agar and agarose. On this selective support, only tumoral stem cells survive and proliferate. […] The morphological characteristics and the growth of the cellular colonies are also a function of the histological type of the tumours being considered.
These culture conditions are also called "anchorage-independent" conditions.
The base medium "MEM 25 MM HEPES" (Minimum Essential Medium, Life Technologies, Belgium) contains Eagle salts but no L-glutamine. This medium is well suited to the growth of a range of varied diploid cells or primary mammal cells. To this medium is then added:
The tumoral cells are maintained in culture in 25 cm^2 falcon dishes (Life Technologies, Belgium). They are then trypsinised and individualised. Their rate of viability is determined by coloration with trypan blue (Sigma, Belgium). It must be greater than 90%. In the case where this condition is kept to, a cellular suspension at the desired concentration is prepared in a solution of agar at 0. 3%. The cells are then seeded between two layers of agar (Sigma, Belgium) and in 35 mm Petri dishes (Life Technologies, Belgium). The base layer is made up of a 0.5% solution of agar and the top layer is made up of a 0.3% solution of agar. The cupules are then positioned and held in an incubator at 37° C. and 5% of CO2. […] After treatment, the cupules are kept in the incubator for 21 days. It is advisable to examine, during the course of the experiment, the appearance and the increase of the cellular colonies. If after 10 days, no colony appears or is developing, the experiment must be repeated. In the contrary case, on the 21st day, 100 μl of an MTT solution (3-(4,5-dimethylthiazol-2-yl)-2,5 diphenyl tetrazolium bromide; Sigma, Belgium) dissolved in the RPMI culture medium (Roswell park Memorial Institute, Life Technologies, Belgium), at the concentration of 1 mg/ml are deposited on the top layer of the group of cupules. The cells are kept in contact with this solution for a minimum of 3 hours at 37° C.
Using an inverted microscope at low magnification, the number of clones whose surface area is greater thar. 100 μm^2 is determined for the group of cupules representing all the different experimental conditions. Then, for each of these experimental conditions, the mean number of cellular colonies±the standard error on the mean (ESM) is calculated.
The mean number of cellular colonies determined for each experimental condition is expressed as a percentage in relation to the control condition made equal to 100%.

The next assay concerns Gal4-RARβ. The assay can be described thus: Transactivation, chimerical receptor Gal4-RARβ (transitory transfection of HeLa). Particulars: 100% = TTNPB 10^-8 M. The class given is cell-based.
A further assay deals with Gal4-RARγ. The assay can be described thus: Transactivation, chimerical receptor Gal4-RARγ (transitory transfection of HeLa). Particulars: 100% = TTNPB 10^-8 M. Format: cell-based.
The next assay deals with RARβ-ERcassette. The assay can be described thus: Transactivation, chimerical receptor RARβ-ERcassette (HeLa). Format: cell-based. The conditions noted are these: TTNPB 10^-8 M = 100. From the text:
(§1) The HeLa cells are co-transfected by a plasmid which codes for a retinoic receptor in which the C domain of bonding to the DNA is substituted by that of the receptor to RE oestrogens, and a plasmid which places the expression of the luciferase under the control of an ERE (Element of Response to Oestrogens). The expressed chimerical receptors are designated as RARα-ERcassette, RARβ-ERcassette, RARγ-ERcassette and RXRα-ERcassette. The A, B, D, E and F regions of the natural receptor are preserved as well as the transcriptional co-operation between the activation domains AF-1 and AF-2. These transitory transfection experiments follow the method of co-precipitation to calcium phosphate. The HeLa cells are co-transfected by […] of plasmid coding for the chimerical receptor, […] of reporter plasmid and […] of expression vector CMV-β-galactosidase used as an internal control of transfection. 24 hours after the transfection, the cells are incubated for 16 hours with the different effectors.
(§2) In this type of chimerical receptor, the C domain of bonding to the DNA of RAR is substituted by that of the receptor to the RE oestrogens. The protein obtained is close to the natural RAR receptor and preserves the transcriptional properties of the AF-1 and AF-2 domains. It modulates the transcription by means of an ERE. This RAR-ERcassette model allows one to observe a transcriptional response to a more physiological ligand.

The next assay concerns T-47D cells. The assay can be described thus: Effect on oestrogen-induced proliferation of T-47D cells. Format: cell-based, human. Particulars: estradiol 10^-9 M. As for the experimental part:
(§3) MCF-7 cells and HeLa are cultivated in DMFM with phenol red to which 5% foetal calf serum is added. The T47-D cells are cultivated in RPMI to which 10% foetal calf serum is added. The experimental tests are carried out in DMEM without phenol red to which foetal calf serum treated with dextran carbon is added at 3%. […] The experiments using the different retinoids are carried out sheltered from the light so as to avoid any isomerisation.
So as to test the anti-proliferation effect of the retinoids, growth experiments under oestrogenic conditions were carried out on cells MCF-7 and T-47D. These are the human oestrogen-dependent mammary cancer cells which express the receptor to RE oestrogens. The effect of the molecules is evaluated after 7 days of culture in oestrogenic conditions (estradiol 10^-9 M) by dosing the cellular DNA. The cells are distributed in 24 well plates at a density of 2×10^4 cells per well. The tests with the different retinoids are carried out in triplicate and the culture medium is changed after 4 days of growth.

In another assay the test system is MCF-7 cells. The assay can be described thus: Effect on oestrogen-induced proliferation of MCF-7 cells. Format: cell-based, human. The conditions noted are these: estradiol 10^-9 M.
Assay [3] has as its system RARE, endogenic RAR and RXR receptors, HRL+N lineage. The assay can be described thus: HRL+N transactivation (RARE-luciferase, stably transfected HeLa). Format: cell-based. How it is done: as §3
(§4) Certain properties of the retinoids have been determined using more developed cellular models. These models consist of cellular lineages transfected in a stable fashion by recombinant plasmids which place the expression of the gene of the luciferase under the control of different nuclear response elements. […] The tests carried out in duplicate are described below for each of these models.
The cellular lineages HRLN and HRL+N allow one to study the activation of an RARE by endogenic receptors using ligands at physiological concentrations. These lineages derive from HeLa cells transfected in a stable fashion by a reporter gene which places the expression of the gene of the luciferase under the control of a nuclear response element RARE (RARE3 -tk-Luc). The HeLa cells express all the known receptors of the retinoic acid (RARα,β,γ and RXRα,β,γ) with a predominance of RARα and RXRα. The response element RARE used for the HRLN cells corresponds to the sequence of the natural gene of the RARβ receptor (GGTTCAnnnnnAGTTCA). The HRL+N cells comprise the sequence GAGTGAnnnnnCGGTGA.
The HRL+N lineage allows one to visualise a co-activation of the RAR and RXR receptors at the level of the RAR-RXR hetero-dimer.

Assay [4] concerns AP-1, MTLN lineage (MCF-7). The assay can be described thus: Anti-AP-1 effect, MTLN lineage activated by TPA. Format: cell-based, human. The conditions noted are these: TPA-activated MTLN cells. How it is done:
as §4
The anti-factor AP-1 transrepressor effect of retinoids is determined using the MTLN lineage, coming from MCF-7 cells transfected in a stable fashion by a vector p(TRE)3 -tk-Luc which places the expression of the gene of luciferase under the control of […]. TPA activates the AP-1 complex formed from proteins of the family of nuclear proto-oncogenes (c-Jun and c-Fos). […] The experiments are made with the MTLN cells activated by 10^-7 M TPA.
The effect of the compounds on the MTLN cells activated by 10^-7 M TPA is expressed as a percentage. […] The inhibitive properties of the products are calculated after deduction of the base activity of the cells. The percentages reported correspond to a range of inhibitions determined from several experiments.

For assay [5], the system named is RAR-ERcassettes (RARα, RARβ, RARγ). The assay can be described thus: Chimerical receptors RAR-ERcassettes, overall profile. Format: cell-based.
Source text: as §1, §2

Entries after “also recorded” stand apart in the source; their conditions may differ.

Description for MCF-7 cells: MCF-7 cells and HeLa are cultivated in DMFM with phenol red to which 5% foetal calf serum is added. […] The experimental tests are carried out in DMEM without phenol red to which foetal calf serum treated with dextran carbon is added at 3%. […] The experiments using the different retinoids are carried out sheltered from the light so as to avoid any isomerisation.

Turning to `C=C(c1ccc(C(=O)O)cc1)c1cc2c(cc1C)C(C)(C)CCC2(C)C` [LGD1069, reference compound], the “effect on cellular increase, A549 (in words)” value in [1] is “induces a stimulation of the proliferation of the A549 cells at 10^-6 M and 10^-8 M”. Moreover, the “effect on growth of cellular colonies (in words)” value in [2] is “strongly and significantly inhibits the growth of cellular colonies of the T-47D lineage”. Further, the “GAL4-RAR RARβ transactivation” value with Gal4-RARβ (10^-7 M) worked out at 5%; with Gal4-RARβ (10^-8 M), 1%. Further, the figures for the “GAL4-RAR RARγ transactivation” value in the assay on Gal4-RARγ (10^-6 M), in the assay on Gal4-RARγ (10^-7 M) and in the assay on Gal4-RARγ (10^-8 M) were 29%, 8% and 1%, respectively. Moreover, the “RAR-ERcassette RARβ transactivation” value in the assay on RARβ-ERcassette (10^-6 M) was found to be 237%; in the assay with RARβ-ERcassette (10^-7 M), 194%. In addition, in the assay on T-47D cells, the “effect on oestrogen-induced growth, T-47D (in words)” value is “exerts no effect whatsoever on the growth of MCF-7 and T-47D cells in oestrogenic conditions”. The “effect on oestrogen-induced growth, MCF-7 (in words)” value in the assay with MCF-7 cells is “exerts no effect whatsoever on the growth of MCF-7 and T-47D cells in oestrogenic conditions”. Further, in [3], the “HRL+N transactivation (in words)” value was “induce a stronger transactivation with the HRL+N cells; also recorded: behaves as a panagonistic molecule”. Moreover, the “anti-AP-1 effect (in words)” value in [4] is reported as “causes an inhibition of the AP-1 route; also recorded: the most effective compound tested in this model”. In addition, in [5], the “RAR-ERcassette profile (in words)” value is “transcriptional power appears higher notably through the RARβ-ERcassette; also recorded: permits a co-activation of RAR and RXR, bringing about an over-activation of the hetero-dimer in comparison with the specific RAR activation of TTNPB”.

These data come from US6265423A, “Aromatic polycyclic retinoid-type derivatives, method for preparing same, and use thereof for making pharmaceutical and cosmetic compositions” (priority 1996, dated 2001).
